Consider 21 compounds from PubChem BioAssay (NCI).

Test systems include LXFL 529 NSCLC; HOP-18 NSCLC; MDA-N; RXF-631 renal; DMS 114 small cell lung; SNB-78 CNS; SN12K1 renal; P388/ADR leukemia; P388 leukemia.
What all share (test): NCI tumour cell line growth inhibition, 48 h

Molecules are shown by their SMILES.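 Cultured in 96-well plates, cells were exposed to test compound for 48 hours across five concentrations. Here, GI50 denotes the concentration required for 50% inhibition of growth. The concentration for full growth arrest is given as TGI.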 A value given as a limit tells only on which side of the number the result lay.

Take `CCOc1ccc2c(ccc(/C=C\c3cc(C)c4cccnc4c3O)[n+]2C)c1`: the TGI with LXFL 529 NSCLC is 14 µM; in the assay with HOP-18 NSCLC, 7.49 µM.

In the case of `O=C(O)c1cc(=O)[nH]c(=S)[nH]1`, the TGI with MDA-N was > 100 µM.

Consider `CCCCN(CCCC)CCCCNc1c(C)cnc2cc(Cl)ccc12`, for which the TGI in the assay on RXF-631 renal was 33.5 µM; in the assay with LXFL 529 NSCLC, > 100 µM; with DMS 114 small cell lung, 56.9 µM; in the assay with SNB-78 CNS, > 100 µM; in the assay on HOP-18 NSCLC, > 100 µM.

For `Cc1ccc(S(=O)(=O)Oc2cc(S(=O)(=O)O)cc3cc(S(=O)(=O)O)cc(N)c23)cc1`, in the assay on MDA-N, the TGI is > 100 µM.

As for `c1ccc2c(c1)nc1n2CSC1`, the TGI with RXF-631 renal, in the assay with LXFL 529 NSCLC, in the assay on DMS 114 small cell lung, in the assay on SNB-78 CNS and in the assay with HOP-18 NSCLC was > 100 µM throughout.

Take `O=C(Nc1ccc(Cl)cc1)/C(Cc1cccc[n+]1[O-])=N\Nc1ccc([N+](=O)[O-])cc1[N+](=O)[O-]`: the TGI in the assay with RXF-631 renal, with LXFL 529 NSCLC, in the assay on DMS 114 small cell lung and with SNB-78 CNS was > 100 µM each time.

Take `[C-]#[O+].[Cl][Sn]([Cl])[Cl].[Cl][Sn]([Cl])[Cl].[Pt].c1ccncc1`: the GI50 is > 75.6 µM in the assay with SN12K1 renal, 35.4 µM in the assay on P388/ADR leukemia and 33.4 µM in the assay with P388 leukemia. Further, the TGI in the assay on SN12K1 renal, in the assay on P388/ADR leukemia and in the assay on P388 leukemia was > 100 µM in each case.

`CN1C2C=C(c3ccccc3)CC1CC2` (stereo not drawn): the TGI in the assay with LXFL 529 NSCLC and in the assay with HOP-18 NSCLC was > 100 µM throughout.

Consider `O=C1CN2C(Cl)(Cl)C2(c2ccccc2)c2cc(Cl)ccc2N1CC(F)(F)F` (stereo not drawn), for which the TGI with DMS 114 small cell lung amounted to 66.6 µM.

With `CC1=C[C@]2(CC(C)C3C(CC4(C)C5CCC6C(C)(C)C(=O)CC[C@@]67C[C@@]57CC[C@]34C)O2)OC1=O` (stereo partly drawn), the TGI with RXF-631 renal was 30.5 µM; with LXFL 529 NSCLC it was > 100 µM; in the assay with DMS 114 small cell lung, 77.1 µM; in the assay with SNB-78 CNS, 71.9 µM; with HOP-18 NSCLC it was > 100 µM.

Regarding `CCOP(=O)(OCC)C(Cc1ccc(OC)c(OC)c1)N=C(c1ccccc1)c1ccccc1` (stereo not drawn), the TGI with MDA-N was > 100 µM.

In turn, `CC(/C=C/c1ccc([N+](=O)[O-])o1)=N/N1CC(CN2CCOCC2)OC1=O` (stereo not drawn) yielded a TGI in the assay with MDA-N of 35.6 µM.

Regarding `COc1ccc(/C=N/NC(=O)NCCCN(C)C)cc1`, the TGI with DMS 114 small cell lung, in the assay with SNB-78 CNS and in the assay on HOP-18 NSCLC was > 100 µM each time.

For the compound `Cc1nc2ccccc2c(=O)n1CC(=O)O`, the TGI in the assay on SN12K1 renal, with P388/ADR leukemia, in the assay with DMS 114 small cell lung, in the assay on P388 leukemia, in the assay with SNB-78 CNS and in the assay on HOP-18 NSCLC was > 100 µM in each case.

Regarding `Cn1cc(C[C@@H](N)C(=O)O)c2ccccc21`, the TGI in the assay with MDA-N was > 100 µM.

In the case of `Nc1ncnc2c1ncn2C1CCC(CO)O1` (stereo not drawn), the TGI in the assay with SN12K1 renal is > 69.5 µM; in the assay with P388/ADR leukemia it was > 77.4 µM; in the assay with DMS 114 small cell lung it was > 74.1 µM; with P388 leukemia it was > 100 µM; in the assay on SNB-78 CNS, > 100 µM; in the assay on HOP-18 NSCLC, > 100 µM.

As for `CC(C)=CCc1c(C)cc2cc3c(c(O)c2c1O)C(O)=CC(=O)C3(CC=C(C)C)C/C=C(\C)CO` (stereo not drawn), the TGI was found to be 62 µM in the assay with SN12K1 renal; 80 µM with P388/ADR leukemia; 82 µM with DMS 114 small cell lung; 101 µM with P388 leukemia; 35.3 µM in the assay with HOP-18 NSCLC.

Regarding `CC[C@@H](C(=O)[C@@H](C)[C@@H](O)[C@H](C)CCc1ccc(C)c(O)c1C(=O)O)[C@H]1O[C@](CC)([C@H]2CC[C@](O)(CC)[C@H](C)O2)C[C@@H]1C`, the TGI in the assay with RXF-631 renal worked out at 10.7 µM; with LXFL 529 NSCLC it was 4.94 µM; with DMS 114 small cell lung, 4.15 µM; in the assay with SNB-78 CNS, 17.1 µM; in the assay with HOP-18 NSCLC it was 13.1 µM.

In turn, `O=C(Nc1nc2ccc([N+](=O)[O-])cc2[n+]([O-])n1)C(F)(F)F` returned a TGI with MDA-N of 34 µM.

As for `CO/N=C1/c2sccc2[C@H](NC(=O)C(F)(F)F)[C@@H]1O`, the TGI in the assay with MDA-N is > 100 µM.

Turning to `C[C@]12C=CC(=O)C=C1CC[C@@H]1[C@@H]2C(=O)C[C@@]2(C)[C@H]1CC[C@]2(O)C(=O)CO`, the TGI in the assay on MDA-N was > 100 µM.
